Experiments:
[1] = target: GcoA-F169A (Amycolatopsis sp., UniProt P0DPQ7, F169A); assay: Discontinuous HPLC specific activity (aromatic substrate disappearance); format: biochemical, Amycolatopsis sp. ATCC 39116; set-up: GST (N, cleaved yes); made in house; host or cells: E. coli Rosetta 2 (DE3); settings: 300 μM substrate, 300 μM NADH, 0.2 μM F169A/GcoB
Experimental: HPLC was used to verify the O-demethylated product of GcoA-F169A GcoA/GcoB with guaiacol, syringol, or 3MC. In addition, discontinuous HPLC was used to determine the specific activity of aromatic product disappearance. Details are provided in SI Appendix. […]
vi = Vmax[S]/(KM + [S]) (4)
Determination of substrate dissociation constants (KD) with F169A. 0-60 µM of guaiacol, syringol, or 3MC in 0.5 or 1 µM aliquots, were titrated into a cuvette containing 3 µM F169A GcoA in 25 mM HEPES, 50 mM NaCl, pH 7.5. The spectrum after each substrate addition was recorded, beginning with no substrate bound. The solution reached equilibrium before the next addition. A difference spectrum was made to illustrate the shift from a low-spin aquo-heme complex to the high-spin substrate-bound complex (spectral […]
shift from 417 nm to 388 nm). […] The absorbance […]
at 388 nm (Abs388-417 nm) was plotted as a function of [substrate], yielding a quadratic curve that was fit to equation (5) to determine […]
Formaldehyde determination. A colorimetric assay using tryptophan can be used to quantify the amount of formaldehyde produced in F169 GcoA/B reactions with guaiacol, syringol, or 3MC. […] 200 μM NADH was added and the background rate recorded. 100 (guaiacol, syringol, or 3MC) or 200 (syringol) μM of substrate was then added and the reaction monitored until there was no more change, due to either substrate, NADH or O2 depletion, whichever occurred first. […] After cooling, the absorbance was read at 575 nm and the [formaldehyde] calculated by using ε575 nm = 4.2 mM-1 cm-1, obtained with formaldehyde as a standard (1). […]
HPLC for product identification and specific activity measurement. […] Integrated intensities vs [standards] were plotted and the resulting standard curves used to quantify the reactants and products.
For specific activity determination, 300 μM guaiacol, syringol, or 3MC were added from 0.1 M DMSO stocks to air saturated buffer (25 mM HEPES, 50 mM NaCl, pH 7.5), with a final volume of 1 mL. The [analyte] was measured via the above HPLC method. […]

[2] = target: T1, WT GcoA (Amycolatopsis sp., UniProt P0DPQ7); assay: End-point coupling assay (formaldehyde produced per NADH consumed); format: biochemical, Amycolatopsis sp. ATCC 39116; settings: molar ratio formaldehyde produced per NADH consumed, 200 µM NADH, 200 µM aromatic substrate
T1 construct: GST (N, cleaved yes); made in house; host or cells: E. coli Rosetta 2 (DE3)
T1 sequence (P0DPQ7 1-407): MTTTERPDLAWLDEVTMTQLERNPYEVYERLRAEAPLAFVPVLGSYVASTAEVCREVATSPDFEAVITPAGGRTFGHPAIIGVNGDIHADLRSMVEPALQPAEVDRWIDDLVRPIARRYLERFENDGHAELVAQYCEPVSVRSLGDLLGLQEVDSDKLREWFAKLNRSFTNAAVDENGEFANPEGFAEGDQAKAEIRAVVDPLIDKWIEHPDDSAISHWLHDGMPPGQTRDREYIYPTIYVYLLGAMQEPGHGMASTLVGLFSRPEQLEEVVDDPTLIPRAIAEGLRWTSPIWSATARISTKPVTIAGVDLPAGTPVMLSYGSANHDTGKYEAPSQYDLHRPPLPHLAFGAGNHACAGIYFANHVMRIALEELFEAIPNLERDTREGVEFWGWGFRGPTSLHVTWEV

Chain of GcoA-F169A (P0DPQ7 whole entry F169A): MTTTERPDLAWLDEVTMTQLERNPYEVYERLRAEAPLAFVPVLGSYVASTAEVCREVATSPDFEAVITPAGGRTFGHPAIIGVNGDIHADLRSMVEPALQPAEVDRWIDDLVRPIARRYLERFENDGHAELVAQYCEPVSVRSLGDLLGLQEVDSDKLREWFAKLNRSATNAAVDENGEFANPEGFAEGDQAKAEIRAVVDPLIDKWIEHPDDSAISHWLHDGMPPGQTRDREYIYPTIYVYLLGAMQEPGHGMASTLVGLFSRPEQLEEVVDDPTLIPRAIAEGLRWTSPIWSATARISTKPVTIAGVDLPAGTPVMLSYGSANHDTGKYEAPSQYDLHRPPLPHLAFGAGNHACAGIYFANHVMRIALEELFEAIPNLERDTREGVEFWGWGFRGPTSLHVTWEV

COc1ccccc1O [guaiacol, 2-methoxyphenol]
aromatic substrate disappearance (specific activity) [1]: 5.6 ± 0.3 μM s-1 μmol F169A-1 | Coupling efficiency [2]: 110 ± 10%

COc1cccc(O)c1O [3MC, 3-methoxycatechol]
aromatic substrate disappearance (specific activity) [1]: 2.6 ± 0.3 μM s-1 μmol F169A-1 | Coupling efficiency [2]: 78 ± 3%

COc1cccc(OC)c1O [syringol, 2,6-dimethoxyphenol]
aromatic substrate disappearance (specific activity) [1]: 4.1 ± 0.3 μM s-1 μmol F169A-1 | Coupling efficiency [2]: 7.1 ± 0.8%

Source: paper PMC6628648, “Enabling microbial syringol conversion through structure-guided protein engineering” (Proceedings of the National Academy of Sciences of the …, 2019)
